Assays:
[1] = Superoxide dismutase activity, xanthine-xanthine oxidase / cytochrome C; assay type: biochemical; settings: reciprocal of IC50; xanthine 60 μM, xanthine oxidase 0.009 units/ml, cytochrome C 27.8 μM
Experimental: Superoxide Dismutase Activity was measured by incubating the compound with a superoxide generating system (Xanthine, 60 μM-Xanthine Oxidase, 0.009 units/ml) and a detector molecule (Cytochrome C, 27.8 μM). Upon reacting with a molecule of superoxide, Cytochrome C undergoes a spectrum-shift which can be detected as an increase in absorbance at 550 nm. In this assay procedure, the reactant concentrations were adjusted to give a reaction rate close to 0.1 AU/min. at 2-3 min. after the reaction began. Addition of compounds with Superoxide Dismutase activity reduce the rate of absorbance change. Compounds were assayed at several concentrations (typically at 0, 2, 4, and 8 μM) and the resulting rates were graphed and fitted to a linear regression formula. The linear regression formula was then solved to determine the concentration of compound required to reduce the reaction rate to 50% of the rate without compound present (IC50).

[2] = Catalase turnover assay, total hydrogen peroxide consumed before inactivation; assay type: biochemical; settings: to completion, 15.8 μM compound, 1582 μM hydrogen peroxide, 5 mM Na phosphate pH 7.4
Experimental: (§1) Catalase activity was measured by incubating the sample compound with hydrogen peroxide and determining the amount of hydrogen peroxide remaining after a period of time using a colorimetric peroxidase-coupled assay method. 10 μM sample compound and 100 μM hydrogen peroxide in 40 mM sodium phosphate pH 7.4 were incubated together at ambient temperature in a multi-well plate. After the desired reaction period had elapsed, 20 μl of peroxidase/ABTS reagent was added (peroxidase/ABTS reagent contained 100 μl of 50 mM Na phosphate, pH 7.4, 1 mg horseradish peroxidase (1310 U/mg) and […]). After five minutes, absorbance at 750 nm was determined. The amount of hydrogen peroxide remaining was calculated based on a standard curve. To compare rates of catalase reaction, the amount of hydrogen peroxide consumed at 20 minutes was determined (See table III). It was also of interest to determine the total number of turnovers completed by the compound before inactivation by hydrogen peroxide. This was assayed under similar conditions, except that 15.8 μM compound was combined with 1582 μM hydrogen peroxide in 5 mM Na phosphate, pH 7.4. Reactions were allowed to proceed to completion and then the amount of hydrogen peroxide remaining was determined as described above. Results showing […] in the turnover assay (nmoles hydrogen peroxide per nmole compound) are also shown in Table III.

[3] = Catalase activity, hydrogen peroxide consumed at 20 minutes; assay type: biochemical; settings: over 20 minutes; 10 μM compound, 100 μM hydrogen peroxide, 40 mM sodium phosphate pH 7.4
Experimental: as §1

[4] = Peroxidase activity, ABTS oxidation; assay type: biochemical; settings: 10 μM compound, 200 μM hydrogen peroxide, 500 μM ABTS, pH 8.1, 740 nm
Experimental: Peroxidase activity was measured by incubating 10 μM compound, 200 μM hydrogen peroxide and 500 μM ABTS in 50 mM sodium phosphate, pH 8.1. The rate of ABTS oxidation was monitored at 740 nm and initial rates (change in absorbance per min.) determined.

[5] = test system: ΦX 174 DNA Plasmid (Form I); test: Cleavage of ΦX 174 DNA plasmid (form I), compound alone or activated with KHSO5; assay type: biochemical, phage ΦX 174
Excerpt: (§2) The DNA cleavage activity was quantified in terms of number of single-strand breaks per DNA molecule according to the equation […], Io=% form I (supercoiled DNA) in the DNA control, and I=% form I in the experiment (see Bernadou et al, Biochemistry, 28: 7268-7275, (1989)). This assay is very sensitive and is able to detect very low levels of DNA activity. S values less than S=1.0 are indicative of very low DNA cleavage activity when the compounds are at a concentration of equal to or less than 1000 nM and KHSO5 is present at a concentration of equal to or less than 100 μM.
(§3) ΦX 174 DNA digestion conditions for standard experiments were as follows: commercially available DNA was diluted to 50 μg/mL in phosphate buffer (10 mM, pH 7.5). The reaction involved 5 μL of ΦX 174 DNA (50 μg/mL, 74.8 μM in base pairs), 5 μL of 40 mM phosphate buffer, pH 7.5 with 400 mM NaCl, 5 μL of metalloporphyrin in double-distilled water or 5 μL of iron-bleomycin complex in double-distilled water, and 5 μL of KHSO5 or 5 μL of H2O2 or 5 μL of ascorbate in double-distilled water. Preincubation of DNA and metalloporphyrins or iron-bleomycin complex was performed for about 15 min. The digestion time in the presence of KHSO5 was 10 min, of H2O2 was 30 min and of ascorbate was 30 min at 20° C. DNA cleavage was monitored by agarose gel electrophoresis. Reactions with KHSO5 were first quenched by 2 μL of 100 mM Hepes buffer, pH 8. In all cases, reactions were quenched by 5 μL of a stopping reagent. The stopping reagent consisted of 250 mM Hepes buffer, pH 7.4, containing 75% glycerol and 0.05% bromophenol blue. Reaction mixtures were then run in 0.8% agarose slab horizontal gel containing ethidium bromide […], at constant current (25 mA for 15h), in 89 mM Tris-borate buffer and 2.5 mM EDTA pH 8.3. Bands were located by WV light (254 nm), photographed, and quantitated by microdensitometry. The correction coefficient 1.47±0.30 was used for decreased stainability of form I DNA vs form II DNA and form III DNA.

[6] = test system: ΦX 174 DNA Plasmid (Form I); test: Cleavage of ΦX 174 DNA plasmid (form I), activation with ascorbate in the presence of air; assay type: biochemical, phage ΦX 174; settings: for S (single-strand breaks per DNA molecule) / form % I / form % II / form % III: DNA 3.5 nM
Excerpt: as §2, §3

[7] = test system: ΦX 174 DNA Plasmid (Form I); test: Cleavage of ΦX 174 DNA plasmid (form I), activation with H2O2; assay type: biochemical, phage ΦX 174; settings: DNA 3.5 nM, compound 1 μM, H2O2 1 mM
Excerpt: as §2, §3

[8] = DNA 3.5 nM, compound 1 μM, KHSO5 100 μM
[9] = compound 10 nM, without ascorbate (Table II)

## O=C(O)c1ccc(-c2c3nc(c(-c4ccc(C(=O)O)cc4)c4ccc([n-]4)c(-c4ccc(C(=O)O)cc4)c4nc(c(-c5ccc(C(=O)O)cc5)c5ccc2[n-]5)C=C4)C=C3)cc1.[Mn+3] [MnTBAP, Mn(III) tetrakis (4-benzoic acid) porphyrin, reference compound]
[1]
  Cyt C SOD 1/(IC50, μM): 0.015 µM⁻¹
[2]
  CATALASE** H2O2 Consumption: 38.5 nmole H2O2/nmole Structural Formula compound
[3]
  CATALASE* Rate at 20 mins.: 0.4 nmole H2O2/nmole Structural Formula compound
[4]
  PEROXIDASE Initial Rate: 0.0304 change in absorbance per min.

## CC[NH+](CC)CCNS(=O)(=O)c1ccc(C2=C3C=CC4=[N+]3[Mn-]35[n]6c2ccc6C(c2ccc(S(=O)(=O)NCC[NH+](CC)CC)cc2)=C2C=CC(=[N+]23)C(c2ccc(S(=O)(=O)NCC[NH+](CC)CC)cc2)=c2ccc([n]25)=C4c2ccc(S(=O)(=O)NCC[NH+](CC)CC)cc2)cc1.[Cl-].[Cl-].[Cl-].[Cl-].[Cl-] [Structural Formula II, meso-tetrakis[4-(N-(2-(N,N-diethylammonio)ethyl)aminosulfonyl)phenyl]porphyrinato diaqua-manganese (III) pentachloride]
[1]
  Cyt C SOD 1/(IC50, μM): 0.034 µM⁻¹
[2]
  CATALASE** H2O2 Consumption: 42.4 nmole H2O2/nmole Structural Formula compound
[3]
  CATALASE* Rate at 20 mins.: 1.6 nmole H2O2/nmole Structural Formula compound
[4]
  PEROXIDASE Initial Rate: 0.0151 change in absorbance per min.

## CC[NH+](CC)CCNS(=O)(=O)c1ccc(-c2c3nc(c(-c4ccc(S(=O)(=O)NCC[NH+](CC)CC)cc4)c4ccc([n-]4)c(-c4ccc(S(=O)(=O)NCC[NH+](CC)CC)cc4)c4nc(c(-c5ccc(S(=O)(=O)NCC[NH+](CC)CC)cc5)c5ccc2[n-]5)C=C4)C=C3)cc1.O.O.[Cl-].[Cl-].[Cl-].[Cl-].[Cl-].[Fe+3] [Structural Formula III, meso-tetrakis[4-(N-(2-(N,N-diethylammonio)ethyl)aminosulfonyl)phenyl]porphyrinato diaqua-iron (III) pentachloride]
[1]
  Cyt C SOD 1/(IC50, μM): 0.045 µM⁻¹
[2]
  CATALASE** H2O2 Consumption: 4.7 nmole H2O2/nmole Structural Formula compound
[3]
  CATALASE* Rate at 20 mins.: 0.3 nmole H2O2/nmole Structural Formula compound
[4]
  PEROXIDASE Initial Rate: 0.0363 change in absorbance per min.

## CC(=O)[O-].CC(=O)[O-].CC(=O)[O-].CC(=O)[O-].CC(=O)[O-].CC[N+](C)(CC)CCNS(=O)(=O)c1ccc(-c2c3nc(c(-c4ccc(S(=O)(=O)NCC[N+](C)(CC)CC)cc4)c4ccc([n-]4)c(-c4ccc(S(=O)(=O)NCC[N+](C)(CC)CC)cc4)c4nc(c(-c5ccc(S(=O)(=O)NCC[N+](C)(CC)CC)cc5)c5ccc2[n-]5)C=C4)C=C3)cc1.O.O.[Mn+3] [Structural Formula VI, meso-tetrakis[4-(N-(2-(N,N,N-diethylmethylammonio)ethyl)aminosulfonyl)phenyl]porphyrinato diaqua-manganese (III) pentaacetate]
[1]
  Cyt C SOD 1/(IC50, μM): 0.041 µM⁻¹
[2]
  CATALASE** H2O2 Consumption: 42 nmole H2O2/nmole Structural Formula compound
[3]
  CATALASE* Rate at 20 mins.: 2.4 nmole H2O2/nmole Structural Formula compound
[4]
  PEROXIDASE Initial Rate: 0.0011 change in absorbance per min.

## CC(=O)[O-].CC(=O)[O-].CC(=O)[O-].CC(=O)[O-].CC(=O)[O-].CC[N+](C)(CC)CCNS(=O)(=O)c1c(C)cc(C)c(-c2c3nc(c(-c4c(C)cc(C)c(S(=O)(=O)NCC[N+](C)(CC)CC)c4C)c4ccc([n-]4)c(-c4c(C)cc(C)c(S(=O)(=O)NCC[N+](C)(CC)CC)c4C)c4nc(c(-c5c(C)cc(C)c(S(=O)(=O)NCC[N+](C)(CC)CC)c5C)c5ccc2[n-]5)C=C4)C=C3)c1C.O.O.[Mn+3] [Structural Formula VII, meso-tetrakis[3-(N-(2-(N,N,N-diethylmethylammonio)ethyl)aminosulfonyl)-2,4,6-trimethylphenyl]porphyrinato diaqua-manganese (III) pentaacetate]
[1]
  Cyt C SOD 1/(IC50, μM): 0.013 µM⁻¹
[2]
  CATALASE** H2O2 Consumption: 166.6 nmole H2O2/nmole Structural Formula compound
[3]
  CATALASE* Rate at 20 mins.: 1.3 nmole H2O2/nmole Structural Formula compound
[4]
  PEROXIDASE Initial Rate: 0.0025 change in absorbance per min.

## CC(=O)[O-].CC(=O)[O-].CC(=O)[O-].CC(=O)[O-].CC(=O)[O-].CC[N+](C)(CC)CCNS(=O)(=O)c1c(C)cc(C)c(C2=C3C=CC4=[N+]3[Fe-]35[n]6c2ccc6C(c2c(C)cc(C)c(S(=O)(=O)NCC[N+](C)(CC)CC)c2C)=C2C=CC(=[N+]23)C(c2c(C)cc(C)c(S(=O)(=O)NCC[N+](C)(CC)CC)c2C)=c2ccc([n]25)=C4c2c(C)cc(C)c(S(=O)(=O)NCC[N+](C)(CC)CC)c2C)c1C [Structural Formula VIII, meso-tetrakis[3-(N-(2-(N,N,N-diethylmethylammonio)ethyl)aminosulfonyl)-2,4,6-trimethylphenyl]porphyrinato diaqua-iron(III) pentaacetate]
[5]; [8]
  S (single-strand breaks per DNA molecule): 0.03 SSBs
  form % I: 90%
  form % II: 10%
  form % III: 0%
[5]; oxidative medium (KHSO5)
  DNA cleavage activity in oxidative medium: do not exhibit any significant DNA cleavage activity
[6]; compound 1 μM, Asc. 1 mM
  S (single-strand breaks per DNA molecule): 1.61 SSBs
  form % I: 43%
  form % II: 57%
  form % III: 0%
[7]
  S (single-strand breaks per DNA molecule): 0.13 SSBs
  form % I: 86%
  form % II: 14%
  form % III: 0%

## Bleomycin [reference compound]
[6]; 1 μM concentration, ascorbate
  DNA cleavage: all DNA is cleaved in small fragments
[6]; compound 10 nM, Asc. 1 mM
  S (single-strand breaks per DNA molecule): 7.79 SSBs
  form % I: 7%
  form % II: 71%
  form % III: 22%
[6]; [9]
  S (single-strand breaks per DNA molecule): 0.01 SSBs
  form % I: 94%
  form % II: 6%
  form % III: 0%
[6]; same concentration (10 nM), ascorbate 1 mM, from experiments 2, 3, 7 and 8
  times more active in DNA cleavage than Structural Formula V: 768 times
